The target of one test is human CB2 receptors (Homo sapiens (Human), UniProt P34972). Description: functional cAMP assay, CB2. It is filed as cell-based. The method in brief:
(§1)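 CHO cells expressing human CB1 or CB2 were preincubated 30 min at 30 °C in Krebs Ringer bicarbonate buffer with 1 mM IBMX, then exposed to compound for 30 min at 30 °C. cAMP was measured by TR-FRET (cAMP-Nano-TRF) against a 10 μM–0.13 nM cAMP standard curve, and EC50 values were derived.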
For orientation: Cyclic AMP is a second messenger, typically raised through Gs and lowered through Gi signalling.

The target of the next test is human CB1 receptors (Homo sapiens (Human), UniProt P21554). Description: functional cAMP assay, CB1. Format: cell-based. A digest of the protocol:
as §1

Where [1] appears, read: functional cAMP assay, CHO cells expressing human CB2, read-out: human CB2 EC50.
[2] abbreviates: functional cAMP assay, CHO cells expressing human CB1, read-out: human CB1 EC50.

Results on 25 compounds are retold here after patent US9403808B2, “Pyrazine derivatives” (Hoffmann-La Roche Inc., priority 2011, dated 2016).

Read-outs that look alike come from different tables or passages of the source. Some results are limits rather than exact numbers.

Sequence of human CB2 receptors (P34972 whole entry): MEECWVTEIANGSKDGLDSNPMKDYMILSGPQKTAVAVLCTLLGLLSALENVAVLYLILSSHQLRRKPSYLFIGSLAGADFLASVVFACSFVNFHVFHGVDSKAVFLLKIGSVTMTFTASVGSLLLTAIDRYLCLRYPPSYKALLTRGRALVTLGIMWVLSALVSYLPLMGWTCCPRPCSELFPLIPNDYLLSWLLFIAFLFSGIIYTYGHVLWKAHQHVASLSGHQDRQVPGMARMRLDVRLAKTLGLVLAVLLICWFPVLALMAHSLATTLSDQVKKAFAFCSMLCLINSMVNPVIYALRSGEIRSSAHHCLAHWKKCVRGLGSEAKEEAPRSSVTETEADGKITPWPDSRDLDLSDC
Sequence of human CB1 receptors (P21554 whole entry): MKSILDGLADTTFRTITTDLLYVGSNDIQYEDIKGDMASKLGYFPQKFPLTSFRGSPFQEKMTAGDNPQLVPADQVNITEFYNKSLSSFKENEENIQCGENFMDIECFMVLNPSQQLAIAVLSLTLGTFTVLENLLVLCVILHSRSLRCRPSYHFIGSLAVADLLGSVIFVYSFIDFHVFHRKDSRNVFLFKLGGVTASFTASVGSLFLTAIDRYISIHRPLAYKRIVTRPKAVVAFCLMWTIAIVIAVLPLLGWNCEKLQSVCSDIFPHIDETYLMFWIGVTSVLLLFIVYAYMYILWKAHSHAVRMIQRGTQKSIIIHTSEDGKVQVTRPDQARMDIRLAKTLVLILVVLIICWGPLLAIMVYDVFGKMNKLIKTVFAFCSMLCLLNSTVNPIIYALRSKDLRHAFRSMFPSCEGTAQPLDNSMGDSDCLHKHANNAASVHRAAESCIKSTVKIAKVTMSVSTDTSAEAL

In the case of `CNC(=O)[C@H](CC1CC1)NC(=O)c1cnc(C2CC2)c(OCC2CC2)n1` [Example 24, 5-Cyclopropyl-6-cyclopropylmethoxy-pyrazine-2-carboxylic acid ((S)-2-cyclopropyl-1-methylcarbamoyl-ethyl)-amide], the EC50 (in general, the concentration at which the effect is half-maximal) at human CB2 receptors (setting [1]) is 199 nM; on human CB1 receptors (setting [2]) it was > 10 µM.

Consider `CC(C)(NC(=O)c1cnc(C2CC2)c(OCC2CC2)n1)c1noc(N)n1` [Example 57, 5-Cyclopropyl-6-cyclopropylmethoxy-pyrazine-2-carboxylic acid [1-(5-amino-[1,2,4]oxadiazol-3-yl)-1-methyl-ethyl]-amide], for which the EC50 at human CB2 receptors (setting [1]) is 221 nM; on human CB1 receptors (setting [2]), > 10 µM.

Regarding `O=C(Nc1ccc(Cl)s1)c1cnc(N2CC(F)(F)C2)c(OCC2CC2)n1` [Example 93, 6-Cyclopropylmethoxy-5-(3,3-difluoro-azetidin-1-yl)-pyrazine-2-carboxylic acid (5-chloro-thiophen-2-yl)-amide], the EC50 was 74.1 nM at human CB2 receptors (setting [1]) and > 10 µM at human CB1 receptors (setting [2]).

With `O=C(NC(CO)CC1CCC1)c1cnc(N2CC(F)(F)C2)c(OCC2CC2)n1` (centres unmarked) [Example 100, 6-Cyclopropylmethoxy-5-(3,3-difluoro-azetidin-1-yl)-pyrazine-2-carboxylic acid (1-cyclobutylmethyl-2-hydroxy-ethyl)-amide], the EC50 on human CB2 receptors (setting [1]) is 7.3 nM; at human CB1 receptors (setting [2]), > 10 µM.

Regarding `Cc1nc(C(C)(NC(=O)c2cnc(C3CC3)c(OCC3CC3)n2)C2CC2)no1` (centres unmarked) [Example 62, 5-Cyclopropyl-6-cyclopropylmethoxy-pyrazine-2-carboxylic acid [1-cyclopropyl-1-(5-methyl-[1,2,4]oxadiazol-3-yl)-ethyl]-amide], the EC50 at human CB2 receptors (setting [1]) stood at 22.8 nM; on human CB1 receptors (setting [2]), 1.65 µM.

For `NC(=O)[C@@H](NC(=O)c1cnc(N2CC(F)(F)C2)c(OCC2CC2)n1)c1ccccc1` [Example 22, 6-Cyclopropylmethoxy-5-(3,3-difluoro-azetidin-1-yl)-pyrazine-2-carboxylic acid ((S)-carbamoyl-phenyl-methyl)-amide], the EC50 at human CB2 receptors (setting [1]) was 93 nM; on human CB1 receptors (setting [2]), > 10 µM.

On to `Cc1nc([C@H](CC2CC2)NC(=O)c2cnc(N3CC(F)(F)C3)c(OCC3CC3)n2)no1` [Example 20, 6-Cyclopropylmethoxy-5-(3,3-difluoro-azetidin-1-yl)-pyrazine-2-carboxylic acid [(S)-2-cyclopropyl-1-(5-methyl-[1,2,4]oxadiazol-3-yl)-ethyl]-amide], for which the values for the EC50 on human CB2 receptors (setting [1]) and on human CB1 receptors (setting [2]) were 28.4 nM and > 10 µM, respectively.

As to `Cc1nc([C@H](NC(=O)c2cnc(C3CC3)c(OCC3CC3)n2)C2CC2)no1` (stereo in doubt) [Example 41, 5-Cyclopropyl-6-cyclopropylmethoxy-pyrazine-2-carboxylic acid [(RS)-cyclopropyl-(5-methyl-[1,2,4]oxadiazol-3-yl)-methyl]-amide], the EC50 was 518 nM on human CB2 receptors and > 10 µM at human CB1 receptors.

Consider `CC(C)(CC(N)=O)NC(=O)c1cnc(C2CC2)c(OCC2CC2)n1` [Example 106], for which the EC50 was 43.2 nM on human CB2 receptors (setting [1]) and > 10 µM on human CB1 receptors (setting [2]).

Take `CCC(CC)(NC(=O)c1cnc(C2CC2)c(OCC2CC2)n1)C(=O)NC` [Example 53, 5-Cyclopropyl-6-cyclopropylmethoxy-pyrazine-2-carboxylic acid (1-ethyl-1-methylcarbamoyl-propyl)-amide]: the half-maximal effective concentration (EC50) was 15.1 nM at human CB2 receptors (setting [1]) and > 10 µM on human CB1 receptors (setting [2]).

As to `CC(C)(NC(=O)c1cnc(N2CC(F)(F)C2)c(OCC2CC2)n1)c1noc(N)n1` [Example 58, 6-Cyclopropylmethoxy-5-(3,3-difluoro-azetidin-1-yl)-pyrazine-2-carboxylic acid [1-(5-amino-[1,2,4]oxadiazol-3-yl)-1-methyl-ethyl]-amide], the half-maximal effective concentration (EC50) was 178 nM on human CB2 receptors (setting [1]) and > 10 µM on human CB1 receptors (setting [2]).

For `COCCC(C)(C)NC(=O)c1cnc(C2CC2)c(OCC2CC2)n1` [Example 95, 5-Cyclopropyl-6-cyclopropylmethoxy-pyrazine-2-carboxylic acid (3-methoxy-1,1-dimethyl-propyl)-amide], the figures for the EC50 on human CB2 receptors (setting [1]) and on human CB1 receptors (setting [2]) were 22.4 nM and > 10 µM, respectively.

Consider `C[C@@](NC(=O)c1cnc(N2CC(F)(F)C2)c(OCC2CC2)n1)(C(N)=O)c1ccccc1` [Example 59, 6-Cyclopropylmethoxy-5-(3,3-difluoro-azetidin-1-yl)-pyrazine-2-carboxylic acid ((S)-1-carbamoyl-1-phenyl-ethyl)-amide], for which the EC50 was 49.2 nM at human CB2 receptors (setting [1]) and > 10 µM at human CB1 receptors (setting [2]).

Consider `CCC(CC)(NC(=O)c1cnc(C2CC2)c(OCC2CC2)n1)C(=O)OC` [Example 30, 2-[(5-Cyclopropyl-6-cyclopropylmethoxy-pyrazine-2-carbonyl)-amino]-2-ethyl-butyric acid methyl ester], for which the figures for the EC50 on human CB2 receptors (setting [1]) and at human CB1 receptors (setting [2]) were 1.4 nM and 0.255 µM, respectively.

Consider `O=C(NC1(CO)CCCCC1)c1cnc(C2CC2)c(OCC2CC2)n1` [Example 94, 5-Cyclopropyl-6-cyclopropylmethoxy-pyrazine-2-carboxylic acid (1-hydroxymethyl-cyclohexyl)-amide], for which the EC50 at human CB2 receptors (setting [1]) is 12 nM; on human CB1 receptors (setting [2]) it was > 10 µM.

In the case of `CNC(=O)C(CC1CCC1)NC(=O)c1cnc(C2CC2)c(OCC2CC2)n1` (centres unmarked) [Example 98, 5-Cyclopropyl-6-cyclopropylmethoxy-pyrazine-2-carboxylic acid (2-cyclobutyl-1-methylcarbamoyl-ethyl)-amide], the EC50 on human CB2 receptors (setting [1]) is 59.3 nM; at human CB1 receptors (setting [2]), > 10 µM.

Regarding `Cc1csc(C(C)(C)NC(=O)c2cnc(N3CC(F)(F)C3)c(OCC3CC3)n2)n1` [Example 55, 6-Cyclopropylmethoxy-5-(3,3-difluoro-azetidin-1-yl)-pyrazine-2-carboxylic acid [1-methyl-1-(4-methyl-thiazol-2-yl)-ethyl]-amide], the figures for the EC50 on human CB2 receptors (setting [1]) and at human CB1 receptors (setting [2]) were 22 nM and > 10 µM, respectively.

Turning to `CC(C)(C)C(CO)NC(=O)c1cnc(C2CC2)c(OCC2CC2)n1` (centres unmarked) [Example 19, 5-Cyclopropyl-6-cyclopropylmethoxy-pyrazine-2-carboxylic acid (1-hydroxymethyl-2,2-dimethyl-propyl)-amide], the EC50 is 53.5 nM on human CB2 receptors (setting [1]) and > 10 µM at human CB1 receptors (setting [2]).

Regarding `CC(C)(O)[C@H](CC1CC1)NC(=O)c1cnc(N2CC(F)(F)C2)c(OCC2CC2)n1` [Example 16, 6-Cyclopropylmethoxy-5-(3,3-difluoro-azetidin-1-yl)-pyrazine-2-carboxylic acid ((S)-1-cyclopropylmethyl-2-hydroxy-2-methyl-propyl)-amide], the EC50 at human CB2 receptors (setting [1]) is 36.9 nM; at human CB1 receptors (setting [2]), > 10 µM.

Consider `Cc1nc(C2(NC(=O)c3cnc(N4CC(F)(F)C4)c(OCC4CC4)n3)CCC2)no1` [Example 9, 6-Cyclopropylmethoxy-5-(3,3-difluoro-azetidin-1-yl)-pyrazine-2-carboxylic acid [1-(5-methyl-[1,2,4]oxadiazol-3-yl)-cyclobutyl]-amide], for which the 50% effective concentration (EC50) amounted to 87.9 nM at human CB2 receptors (setting [1]) and 1.29 µM on human CB1 receptors (setting [2]).

`CC(C)(CC(N)=O)NC(=O)c1cnc(N2CC(F)(F)C2)c(OCC2CC2)n1` [Example 107, 6-Cyclopropylmethoxy-5-(3,3-difluoro-azetidin-1-yl)-pyrazine-2-carboxylic acid (2-carbamoyl-1,1-dimethyl-ethyl)-amide]: the results for the EC50 at human CB2 receptors (setting [1]) and at human CB1 receptors (setting [2]) were 11.8 nM and 0.874 µM, respectively.

For the compound `CC(C)(NC(=O)c1cnc(C2CC2)c(-c2cccc(Cl)c2)n1)c1nccs1` [Example 6, 6-(3-Chloro-phenyl)-5-cyclopropyl-pyrazine-2-carboxylic acid (1-methyl-1-thiazol-2-yl-ethyl)-amide], the EC50 on human CB2 receptors (setting [1]) was found to be 48 nM; on human CB1 receptors (setting [2]), 0.892 µM.

`NC(=O)C(CC1CCC1)NC(=O)c1cnc(N2CC(F)(F)C2)c(OCC2CC2)n1` (centres unmarked) [Example 101, 6-Cyclopropylmethoxy-5-(3,3-difluoro-azetidin-1-yl)-pyrazine-2-carboxylic acid (1-carbamoyl-2-cyclobutyl-ethyl)-amide]: the results for the EC50 at human CB2 receptors (setting [1]) and on human CB1 receptors (setting [2]) were 5.6 nM and > 10 µM, respectively.

Consider `NC(=O)CC1(NC(=O)c2cnc(C3CC3)c(OCC3CC3)n2)COC1` [Example 84, 5-Cyclopropyl-6-cyclopropylmethoxy-pyrazine-2-carboxylic acid (3-carbamoylmethyl-oxetan-3-yl)-amide], for which the concentration giving a half-maximal response (EC50) on human CB2 receptors (setting [1]) was 14.6 nM; at human CB1 receptors (setting [2]) it was > 10 µM.

As to `CNC(=O)[C@@H](NC(=O)c1cnc(C2CC2)c(OCC2CC2)n1)C(C)(C)C` [Example 14, 5-Cyclopropyl-6-cyclopropylmethoxy-pyrazine-2-carboxylic acid ((S)-2,2-dimethyl-1-methylcarbamoyl-propyl)-amide], the half-maximal effective concentration (EC50) on human CB2 receptors (setting [1]) stood at 6.8 nM; at human CB1 receptors (setting [2]), 0.155 µM.
